According to the NIST ThermoML archive (doi:10.1021/acs.jced.9b00752):

Experiment: mn = molality of the nth substance listed, in mol/kg
Conditions: 100 kPa, Liquid, Vibrating tube method

N[C@@H](Cc1c[nH]cn1)C(=O)O [L-histidine] + O
mass density [kg/m3]
Conditions	273.65 K	274.15 K	274.65 K	275.15 K	275.65 K	276.15 K	276.65 K	277.15 K	277.65 K	278.15 K
m1 = 0.0078	1000.36	1000.39	1000.41	1000.43	1000.44	1000.45	1000.46	1000.45	1000.45	1000.44
m1 = 0.0176	1000.94	1000.96	1000.99	1001	1001.01	1001.02	1001.02	1001.02	1001.02	1001.01
m1 = 0.0269	1001.55	1001.57	1001.59	1001.61	1001.62	1001.62	1001.62	1001.62	1001.62	1001.61
m1 = 0.048	1002.8	1002.82	1002.83	1002.85	1002.86	1002.86	1002.86	1002.85	1002.85	1002.84
m1 = 0.0636	1003.83	1003.85	1003.87	1003.88	1003.88	1003.88	1003.88	1003.88	1003.87	1003.85
m1 = 0.0856	1005.09	1005.11	1005.12	1005.12	1005.13	1005.13	1005.12	1005.11	1005.1	1005.09
m1 = 0.0982	1005.86	1005.87	1005.88	1005.89	1005.89	1005.89	1005.88	1005.87	1005.86	1005.85
m1 = 0.115	1006.76	1006.77	1006.77	1006.78	1006.78	1006.78	1006.77	1006.76	1006.75	1006.73
m1 = 0.1268	1007.55	1007.57	1007.57	1007.57	1007.57	1007.57	1007.56	1007.54	1007.53	1007.51
m1 = 0.138	1008.24	1008.25	1008.25	1008.25	1008.25	1008.25	1008.23	1008.22	1008.2	1008.18
m1 = 0.1586	1009.57	1009.58	1009.58	1009.58	1009.58	1009.57	1009.55	1009.54	1009.52	1009.5
